Source: ChEMBL document CHEMBL1208745, “6-Phenyl-1H-imidazo[4,5-c]pyridine-4-carbonitrile as cathepsin S inhibitors” (Bioorg Med Chem Lett, 2010)
The source made the active and inactive calls. The calls are words filed in the database; no cut-off is given here.

Experiments:
[1] = target: Procathepsin L (Homo sapiens) (UniProt P07711); assay: Inhibition of human cathepsin L by fluorescence assay
Cathepsin S [2] = target: T1, Cathepsin S (Homo sapiens, UniProt P25774); assay: Inhibition of human cathepsin S by fluorescence assay
[3] = target: Cathepsin B (Homo sapiens) (UniProt P07858); assay: Inhibition of human cathepsin B by fluorescence assay
Cathepsin K = target: T2, Cathepsin K (Homo sapiens, UniProt P43235); assay: Inhibition of human cathepsin K by fluorescence assay
T2 sequence (P43235 whole entry): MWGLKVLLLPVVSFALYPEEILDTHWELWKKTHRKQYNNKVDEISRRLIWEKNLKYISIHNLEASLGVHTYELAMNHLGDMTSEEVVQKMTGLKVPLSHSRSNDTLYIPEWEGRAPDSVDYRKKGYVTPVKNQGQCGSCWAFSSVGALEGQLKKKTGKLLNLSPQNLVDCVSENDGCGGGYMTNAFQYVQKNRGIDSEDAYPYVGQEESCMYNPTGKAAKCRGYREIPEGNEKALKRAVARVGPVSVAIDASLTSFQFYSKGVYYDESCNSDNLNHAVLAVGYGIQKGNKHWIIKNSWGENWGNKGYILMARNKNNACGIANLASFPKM

Cathepsin S [4] = target: T1, Cathepsin S; assay: Inhibition of cathepsin S-mediated proteolytic cleavage of MHC2 associated invariant chain in human JY cells assessed as accumulation of lip10 by Western blot analysis; format: cell-based
Cathepsin S [5] = target: T3, Cathepsin S (Mus musculus, UniProt O70370); assay: Inhibition of mouse cathepsin S by fluorescence assay
[6] = Oral bioavailability in Wistar rat at 10 mg/kg; format: ADME, organism-based; settings: in vivo
Cathepsin S [7] = target: T3, Cathepsin S; assay: Inhibition of cathepsin S-mediated proteolytic cleavage of MHC2 associated invariant chain in mouse splenocytes assessed as accumulation of lip10 by Western blot analysis; format: cell-based
[8] = Volume of distribution at steady state in Wistar rat at 2 mg/kg, iv and 10 mg/kg, po; format: ADME, organism-based; settings: in vivo, read-out: Vdss
[9] = Plasma clearance in Wistar rat at 2 mg/kg, iv and 10 mg/kg, po; format: ADME, organism-based
[10] = Ratio of drug level in spleen to plasma in C57/BL6 mouse at 0.3 mg/kg, po; format: ADME, organism-based, C57Bl/6; parameters: dose 0.3 mg/kg, route oral
Mus musculus = assay: Induction of Lip10 accumulation in C57/BL6 mouse spleen at 0.3 mg/kg, po after 4 hrs by Western blot analysis; format: functional, organism-based; parameters: dose 0.3 mg/kg; settings: C57Bl/6
[11] = Chemical stability of the compound assessed as half life at 1.25 mM at pH 7.5 by nitrile war-head stability assay in presence of GSH; format: physicochemical
[12] = Chemical stability of the compound assessed as half life at 1.15 mM at pH 7.5 by nitrile war-head stability assay in presence of GSH; format: physicochemical
[13] = Chemical stability of the compound assessed as half life at 1.24 mM at pH 7.5 by nitrile war-head stability assay in presence of GSH; format: physicochemical

Chain of Procathepsin L (Homo sapiens) (P07711 114-333 limits assumed): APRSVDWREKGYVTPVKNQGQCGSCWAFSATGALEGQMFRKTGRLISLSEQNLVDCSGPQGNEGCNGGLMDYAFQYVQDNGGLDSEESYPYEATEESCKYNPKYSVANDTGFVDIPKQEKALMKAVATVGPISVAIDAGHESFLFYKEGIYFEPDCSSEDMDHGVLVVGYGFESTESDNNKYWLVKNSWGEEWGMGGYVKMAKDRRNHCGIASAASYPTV
T1 sequence (P25774 whole entry): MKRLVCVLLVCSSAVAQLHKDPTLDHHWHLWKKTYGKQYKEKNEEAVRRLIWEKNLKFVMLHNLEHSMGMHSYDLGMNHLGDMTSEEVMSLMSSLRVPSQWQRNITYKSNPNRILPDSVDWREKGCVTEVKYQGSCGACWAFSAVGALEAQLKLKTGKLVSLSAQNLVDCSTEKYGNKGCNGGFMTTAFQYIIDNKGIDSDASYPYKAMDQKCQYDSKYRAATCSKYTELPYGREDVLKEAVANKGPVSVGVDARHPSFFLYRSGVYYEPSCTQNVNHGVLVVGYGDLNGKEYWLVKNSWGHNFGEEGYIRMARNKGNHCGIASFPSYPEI
T3 sequence (O70370 whole entry): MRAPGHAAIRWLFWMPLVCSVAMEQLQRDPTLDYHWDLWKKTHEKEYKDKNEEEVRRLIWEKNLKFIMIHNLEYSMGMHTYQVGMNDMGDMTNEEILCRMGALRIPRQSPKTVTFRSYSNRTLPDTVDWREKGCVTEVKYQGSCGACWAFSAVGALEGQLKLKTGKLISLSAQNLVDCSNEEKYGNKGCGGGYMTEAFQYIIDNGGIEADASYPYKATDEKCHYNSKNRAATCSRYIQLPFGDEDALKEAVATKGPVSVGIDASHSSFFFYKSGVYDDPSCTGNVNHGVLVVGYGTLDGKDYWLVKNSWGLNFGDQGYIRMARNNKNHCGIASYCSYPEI

Structure (SMILES) | inhibition [1] | IC50 (Cathepsin S [2]) [nM] | inhibition [3] | IC50 (Cathepsin K) [nM] | also measured
CC(=O)Nc1ccc(-c2cc3[nH]cnc3c(C#N)n2)cc1C(F)(F)F | inactive | 3240 | inactive | > 10000 | 
CCNc1ccc(-c2cc3[nH]cnc3c(C#N)n2)cc1C(F)(F)F | inactive | 105 | inactive | > 10000 | 
CCOc1ccc(-c2cc3c(ncn3C)c(C#N)n2)cc1C(F)(F)F | inactive | 40 | inactive | 1260 | 
Cn1cnc2c(C#N)nc(-c3ccc(OCCN4CCCC4=O)c(C(F)(F)F)c3)cc21 | inactive | 7.8 | inactive | 2510 | IC50 (Cathepsin S [4]): 1420 nM
CCOc1ccc(-c2cc3c(ncn3CCN(C)C)c(C#N)n2)cc1C(F)(F)F |  | 32 |  | 447 | IC50 (Cathepsin S [4]): 854 nM
CCOc1ccc(-c2cc3[nH]cnc3c(C#N)n2)cc1C(F)(F)F | inactive | 25 | inactive | 8310 | 
CCOc1ccc(-c2nc(C#N)c3nc[nH]c3n2)cc1C(F)(F)F | inactive |  | inactive |  | 
Cn1cnc2c(C#N)nc(-c3ccc(OCC4CCNCC4)c(C(F)(F)F)c3)cc21 | inactive | 14.1 | inactive | 240 | 
Cn1cnc2c(C#N)nc(-c3ccc(OC4CCNCC4)c(C(F)(F)F)c3)cc21 | inactive | 316 | inactive | 891 | 
CCOc1ccc(-c2cccc(C#N)n2)cc1C(F)(F)F | inactive |  | inactive |  | 
N#Cc1nc(-c2cccc(C(F)(F)F)c2)cc2[nH]cnc12 | inactive |  | inactive |  | 
CCN1CCN(CCCOc2ccc(-c3cc4c(ncn4C)c(C#N)n3)cc2C(F)(F)F)CC1 | inactive | 7.2 | inactive | 331 | IC50 (Cathepsin S [5]): 2.6 nM; bioavailability [6]: 9%; IC50 (Cathepsin S [7]): 6.5 nM; Vd [8]: 2 L/kg; clearance [9]: 28 mL/min/kg; Kp [10]: 50; IC50 (Cathepsin S [4]): 63 nM; Activity (Mus musculus): Active; half-life at 1250 µM [11]: > 100 h
CN1CCN(CCCOc2ccc(-c3ccnc(C#N)n3)cc2C(F)(F)F)CC1 |  |  |  |  | half-life at 1150 µM [12]: < 0.25 h
Cn1cnc2c(C#N)nc(-c3ccc(OCc4cccnc4)c(C(F)(F)F)c3)cc21 | inactive | 12.6 | inactive | > 10000 | 
Cn1cnc2c(C#N)nc(-c3ccc(CCO)c(C(F)(F)F)c3)cc21 | inactive | 71 | inactive | 3160 | 
Cc1cccc(CCOc2ccc(-c3cc4c(ncn4C)c(C#N)n3)cc2C(F)(F)F)n1 | inactive | 11 | inactive | 2040 | IC50 (Cathepsin S [4]): 267 nM
CCCOc1ccc(-c2cc3nc[nH]c3c(C#N)n2)cc1C(F)(F)F |  | 200 |  | 7760 | 
N#Cc1nc(-c2ccc(OCc3ccccc3)c(C(F)(F)F)c2)cc2[nH]cnc12 | inactive | 676 | inactive | > 10000 | 
CN1CCN(CCCOc2ccc(-c3cccc(C#N)n3)cc2C(F)(F)F)CC1 |  |  |  |  | half-life at 1240 µM [13]: > 100 h

Structure (SMILES) | inhibition [1] | IC50 (Cathepsin S [2]) [nM] | inhibition [3] | IC50 (Cathepsin K) [nM] | also measured
COc1ccc(-c2cc3[nH]cnc3c(C#N)n2)cc1C(F)(F)F | inactive | 339 | inactive | 8510 | 
N#Cc1nc(-c2ccc(OCCCO)c(C(F)(F)F)c2)cc2[nH]cnc12 | inactive | 63 | inactive | 2690 | 
CCOc1ccc(-c2cc3c(ncn3CCCN(C)C)c(C#N)n2)cc1C(F)(F)F |  | 27 |  | 270 | IC50 (Cathepsin S [4]): 260 nM
CN(C)CCCOc1ccc(-c2cc3c(ncn3C)c(C#N)n2)cc1C(F)(F)F | inactive | 41 | inactive | 776 | IC50 (Cathepsin S [5]): 2.6 nM; bioavailability [6]: 58%; Vd [8]: 58 L/kg; clearance [9]: 10 mL/min/kg; IC50 (Cathepsin S [4]): 84 nM
Cn1cnc2c(C#N)nc(-c3ccc(OCc4ccncc4)c(C(F)(F)F)c3)cc21 | inactive | 10 | inactive | > 10000 | 
CN(C)CCOc1ccc(-c2cc3c(ncn3C)c(C#N)n2)cc1C(F)(F)F | inactive | 209 | inactive | 5890 | 
Cn1cnc2c(C#N)nc(-c3ccc(OCCN4CCNC(=O)C4)c(C(F)(F)F)c3)cc21 | inactive | 7.8 | inactive | 1170 | 
N#Cc1nc(-c2cccc(C(F)(F)F)c2)cc2nc[nH]c12 |  | 1050 |  | 2000 | 
Cn1cnc2c(C#N)nc(-c3ccc(OCCCN4CCCC4)c(C(F)(F)F)c3)cc21 | inactive | 28 | inactive | 871 | IC50 (Cathepsin S [4]): 89 nM
Cn1cnc2c(C#N)nc(-c3ccc(OCCC4CCNCC4)c(C(F)(F)F)c3)cc21 | inactive | 8.3 | inactive | 178 | IC50 (Cathepsin S [4]): 9 nM
CCCOc1ccc(-c2cc3[nH]cnc3c(C#N)n2)cc1C(F)(F)F | inactive |  | inactive |  | 
N#Cc1nc(-c2ccc(OCCO)c(C(F)(F)F)c2)cc2[nH]cnc12 | inactive | 145 | inactive | 2820 | 
CN1CCN(CCCOc2ccc(-c3cc4c(ncn4C)c(C#N)n3)cc2C(F)(F)F)CC1 | inactive |  | inactive | 468 | IC50 (Cathepsin S [4]): 106 nM
Cn1cnc2c(C#N)nc(-c3ccc(CCCO)c(C(F)(F)F)c3)cc21 | inactive | 24 | inactive | 1070 | 
CCOc1ccc(-c2cc3c(ncn3CCN3CCOCC3)c(C#N)n2)cc1C(F)(F)F |  | 37 |  | 1660 | IC50 (Cathepsin S [4]): 10000 nM
CCOc1ccc(-c2cc3c(ncn3CCCN3CCOCC3)c(C#N)n2)cc1C(F)(F)F |  | 35 |  | 513 | 
Cn1cnc2c(C#N)nc(-c3ccc(OCc4ccccn4)c(C(F)(F)F)c3)cc21 | inactive | 20 | inactive | 2290 | IC50 (Cathepsin S [5]): 2.5 nM; bioavailability [6]: 54%; Vd [8]: 0.7 L/kg; clearance [9]: 327 mL/min/kg; IC50 (Cathepsin S [4]): 853 nM
Cn1ccc2c(C#N)nc(-c3ccc(OCCN4CCCC4=O)c(C(F)(F)F)c3)cc21 |  | 661 |  | > 10000 | 
